Where “and” joins values, the source holds several entries; their conditions need not be identical. Equal entries are not always repeated.
Test system: 935938-334-R-J1-PDC complex spheroid viability
Experiment: Anticancer human tumor 935938-334-R-J1-PDC patient-derived small intestine adenocarcinoma cell line growth inhibition [POLQ]
Settings: for viability, T/C: stronger effect = lower value
Procedure: Multicellular complex tumor spheroid response to Polymerase (POL) inhibitors (novobiocin, ART-558, RP6685) in combination with a variety of drugs and investigational agents in selected tumor cell lines
The POL inhibitors (novobiocin, ART-558, and RP6685) were evaluated both individually and in combination with standard of care and investigational anticancer small molecules within a complex spheroid model of solid tumors. . Complex spheroids include a stromal component modeled by human endothelial cells (HUVEC) and fibroblasts modeled by human mesenchymal stem cells (MSCs). The concentration ranges selected for each drug and investigational agent were based upon clinically achievable concentrations if the clinical Cmax of the agent was known.
Compounds. The drugs and investigational agents: novobiocin (NSC847541), ART-558 (NSC835418), RP-6685 (NSC848927), peposertib (NSC802822), ceralasertib (NSC780249), elimusertib (NSC800525), camonsertib (NSC841442), AZD-1390 (NSC803789), olaparib (NSC753686), talazoparib (NSC767125), rucaparib (NSC756644), sotorasib (NSC818433), MRTX-1133 (NSC836407), SN-38 (NSC673596), topotecan (NSC609699), epotoside (NSC141540), doxorubicin (NSC123127), gemcitabine (NSC613327), 5-fluorouracil (NSC19893), paclitaxel (NSC125973), vemurafenib (NSC761431), MSA-2 (NSC828583), SN-011 (NSC837082), adavosertib (NSC754352), prexasertib (NSC758257), carboplatin (NSC241240) and oxaliplatin (NSC266046), were obtained from the National Cancer Institute (NCI) Developmental Therapeutics Program Chemical Repository (21). The FDA-approved anticancer drug set is available from the Developmental Therapeutics Program at https://dtp.cancer.gov/organization/dscb/obtaining/. […] The stock solutions were prepared in dimethyl sulfoxide (DMSO, Sigma-Aldrich, St. Louis, MO, cat. D2650), except for the platinum compounds which were prepared in saline (Quality Biological, Gaithersburg, MD, cat. 114-055-101), at 800-fold the tested concentration and stored at -70 degrees C prior to their use. All drugs and investigational agents were tested over a range starting from a high concentration at or near the clinical Cmax and decreasing in half-log increments. If the clinical Cmax for an agent had not been determined, the highest concentration tested was 10 microM, except for SN-38, which was tested at a high concentration of 1 microM.
Cell Culture. All cells were maintained in an incubator at 37 degrees C and 5% CO2 with 95% humidity. The PDC lines were cultured according to standard operating procedures established by the NCI PDMR (https://pdmr.cancer.gov). Table 3 of the manuscript, lists the cell lines along with the number of the three cell types plated to form the mct-spheroids and media for tumor cell growth. After thawing, all PDC lines, except 997537-175-T-J1-PDC and 415267-285-R-J2-PDC, were cultured in Matrigel-coated flasks prepared with a working solution of 1X Ham's F-12 nutrient mix, without supplementation (Thermo Fisher Scientific, cat. 11765054), 100 U/mL penicillin-streptomycin (Thermo Fisher Scientific, cat. 15140122), and 2.5% Matrigel (Corning Inc., Corning, NY, cat. 354248) for the first three passages. The two PDC lines 997537-175-T-J1-PDC and 415267-285-R-J2-PDC were cultured on uncoated flasks. The 857933-349-R-J2-PDC line was cultured in 6C/Colon 1B media containing advanced DMEM/F-12 (Thermo Fisher Scientific, cat. 12634028), 10 mM HEPES (Thermo Fisher Scientific, cat. 15630080), 1X GlutaMAX supplement (Thermo Fisher Scientific, cat. 35050061), 0.1 mg/mL primocin (InvivoGen, San Diego, CA, cat. ant-pm-2), 10% defined fetal bovine serum, heat inactivated (HyClone Laboratories Inc., Logan, UT, cat. SH30070.03HI), 50% L-WRN conditioned media (ATCC, cat. CRL-3276), 1.25 mM N-Acetyl-L-cysteine (Sigma-Aldrich, cat. A9165), 10 mM nicotinamide (Sigma-Aldrich, cat. N0636), 1X B-27 supplement (Thermo Fisher Scientific, cat. 17504044), 1X N-2 supplement (Thermo Fisher Scientific, cat. […]
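Also: spheroids exposed to drugs for seven days before viability read.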
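For viability, T/C in this document: 100% = DMSO vehicle control wells.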

CC(=O)O[C@H]1C(=O)[C@@]2(C)[C@H]([C@H](OC(=O)c3ccccc3)[C@]3(O)C[C@H](OC(=O)[C@H](O)[C@@H](NC(=O)c4ccccc4)c4ccccc4)C(C)=C1C3(C)C)[C@]1(OC(C)=O)CO[C@@H]1C[C@@H]2O
viability, T/C (compound 0.00949 µM): 35.5% and 53.2% and 37.8% | viability, T/C (compound 0.03 µM): 18.7% and 20.8% and 19.2% | viability, T/C (compound 0.0949 µM): 15.8% and 15.7% and 16% | viability, T/C (compound 0.3 µM): 12.4% and 16.4% and 17% | viability, T/C (compound 0.949 µM): 14.9% and 15.7% and 13.9% | viability, T/C (compound 3 µM): 17.9% and 19.1% and 19.5% | IC50 (curve of compound): < 0.00949 µM and 0.0106 µM

O=c1[nH]cc(F)c(=O)[nH]1 + COC1C(OC(N)=O)C(O)C(Oc2ccc3c(O)c(NC(=O)c4ccc(O)c(CC=C(C)C)c4)c(=O)oc3c2C)OC1(C)C
IC50 (curve of first compound, second compound 0.0316 µM): > 10 µM | IC50 (curve of first compound, second compound 0.1 µM): > 10 µM | IC50 (curve of first compound, second compound 0.316 µM): 4.82 µM | IC50 (curve of first compound, second compound 1 µM): > 10 µM | IC50 (curve of first compound, second compound 3.16 µM): 8.13 µM | IC50 (curve of first compound, second compound 10 µM): > 10 µM | viability, T/C (second compound 0.0316 µM, first compound 0.0316 µM): 85.7% | viability, T/C (second compound 0.0316 µM, first compound 0.1 µM): 96.3% | viability, T/C (second compound 0.0316 µM, first compound 0.316 µM): 76.8% | viability, T/C (second compound 0.0316 µM, first compound 1 µM): 71.9% | viability, T/C (second compound 0.0316 µM, first compound 3.16 µM): 67.4% | viability, T/C (second compound 0.0316 µM, first compound 10 µM): 57% | viability, T/C (second compound 0.1 µM, first compound 0.0316 µM): 79.4% | viability, T/C (second compound 0.1 µM, first compound 0.1 µM): 103% | viability, T/C (second compound 0.1 µM, first compound 0.316 µM): 83.2% | viability, T/C (second compound 0.1 µM, first compound 1 µM): 63% | viability, T/C (second compound 0.1 µM, first compound 3.16 µM): 63.3% | viability, T/C (second compound 0.1 µM, first compound 10 µM): 55.9% | viability, T/C (second compound 0.316 µM, first compound 0.0316 µM): 103% | viability, T/C (second compound 0.316 µM, first compound 0.1 µM): 76.7% | viability, T/C (second compound 0.316 µM, first compound 0.316 µM): 71.9% | viability, T/C (second compound 0.316 µM, first compound 1 µM): 72.9% | viability, T/C (second compound 0.316 µM, first compound 3.16 µM): 60.5% | viability, T/C (second compound 0.316 µM, first compound 10 µM): 36.5% | viability, T/C (second compound 1 µM, first compound 0.0316 µM): 93% | viability, T/C (second compound 1 µM, first compound 0.1 µM): 96.4% | viability, T/C (second compound 1 µM, first compound 0.316 µM): 80.9% | viability, T/C (second compound 1 µM, first compound 1 µM): 52.8% | viability, T/C (second compound 1 µM, first compound 3.16 µM): 64.5% | viability, T/C (second compound 1 µM, first compound 10 µM): 51.1% | viability, T/C (second compound 3.16 µM, first compound 0.0316 µM): 87.8% | viability, T/C (second compound 3.16 µM, first compound 0.1 µM): 82.5% | viability, T/C (second compound 3.16 µM, first compound 0.316 µM): 73.3% | viability, T/C (second compound 3.16 µM, first compound 1 µM): 64.4% | viability, T/C (second compound 3.16 µM, first compound 3.16 µM): 58% | viability, T/C (second compound 3.16 µM, first compound 10 µM): 48% | viability, T/C (second compound 10 µM, first compound 0.0316 µM): 76.6% | viability, T/C (second compound 10 µM, first compound 0.1 µM): 82.4% | viability, T/C (second compound 10 µM, first compound 0.316 µM): 91.5% | viability, T/C (second compound 10 µM, first compound 1 µM): 67.3% | viability, T/C (second compound 10 µM, first compound 3.16 µM): 52.3% | viability, T/C (second compound 10 µM, first compound 10 µM): 51.3%

C#Cc1c(F)ccc2cc(O)cc(-c3ncc4c(N5CC6CCC(C5)N6)nc(OCC56CCCN5CC(F)C6)nc4c3F)c12 (stereo not drawn)
viability, T/C (compound 0.0316 µM): 94.5% and 100% and 95% | viability, T/C (compound 0.1 µM): 109% and 87.3% and 101% | viability, T/C (compound 0.316 µM): 78.4% and 86.1% and 85.4% | viability, T/C (compound 1 µM): 59.5% and 69% and 70.2% | viability, T/C (compound 3.16 µM): 64.2% and 46.4% and 44% | viability, T/C (compound 10 µM): 28.9% and 34.7% and 36.1% | IC50 (curve of compound): 3.79 µM and 2.85 µM and 2.51 µM

Cc1cccc(N(C)C(=O)C2C(O)CCN2c2nc(C)cc(C(F)(F)F)c2C#N)c1 (stereo not drawn)
IC50 (compound alone, run of 11/27/2023): > 10 µM | IC50 (compound alone, run of 12/05/2023): > 10 µM
